Experimental data as given in the supplement of paper PMC10883282.

Key:
Experiment in all cases: relative viability vs DMSO control (72 h) (fraction); higher = more viable cells
SK-LMS-1 = test system: SK-LMS-1
How it was run: (§1)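 After seeding at densities set for 80–90% confluence in 384-well plates, sarcoma cell lines waited 24 h before 2.5 µl of serially diluted compound was added. Source plates held 10 mM down to 0.0002 mM. Plates were incubated 72 h at 37 °C with 5% CO2, with 0.1% DMSO vehicle and a 5 µM positive control, and relative viability was taken from ATPLite as percent growth averaged over up to triplicate wells, with 1 set as full and 0 as none.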

G401 = test system: G401
How it was run: as §1

RD-ES = test system: RD-ES
How it was run: as §1

KHOS-NP = test system: KHOS-NP
How it was run: as §1

SW872 = test system: SW872
How it was run: as §1

MES-SA = test system: MES-SA
How it was run: as §1

VA-ES-BJ = test system: VA-ES-BJ
How it was run: as §1

SW1353 = test system: SW1353
How it was run: as §1

HT1080 = test system: HT1080
How it was run: as §1

RD = test system: RD
How it was run: as §1

SW684 = test system: SW684
How it was run: as §1

SK-ES-1 = test system: SK-ES-1
How it was run: as §1

COc1cc(N2CCC(N3CCN(C)CC3)CC2)ccc1Nc1ncc(Cl)c(Nc2ccccc2P(C)(C)=O)n1 [Brigatinib]
Details	relative viability
G401, 0.00017 µM	0.983
G401, 0.00051 µM	0.972
G401, 0.00152 µM	0.9624
G401, 0.00457 µM	0.9721
G401, 0.01372 µM	0.941
G401, 0.04115 µM	0.909
G401, 0.1235 µM	0.923
G401, 0.3704 µM	0.764
G401, 1.111 µM	0.626
G401, 3.333 µM	0.261
G401, 10 µM	0.0657
HT1080, 0.00017 µM	1.01
HT1080, 0.00051 µM	1.03
HT1080, 0.00152 µM	1.02
HT1080, 0.00457 µM	1.01
HT1080, 0.01372 µM	1
HT1080, 0.04115 µM	0.984
HT1080, 0.1235 µM	1.01
HT1080, 0.3704 µM	1.03
HT1080, 1.111 µM	0.93
HT1080, 3.333 µM	0.573
HT1080, 10 µM	0.151
KHOS-NP, 0.00017 µM	1.04
KHOS-NP, 0.00051 µM	1.06
KHOS-NP, 0.00152 µM	1.05
KHOS-NP, 0.00457 µM	1.02
KHOS-NP, 0.01372 µM	1.03
KHOS-NP, 0.04115 µM	1.03
KHOS-NP, 0.1235 µM	0.994
KHOS-NP, 0.3704 µM	0.985
KHOS-NP, 1.111 µM	0.852
KHOS-NP, 3.333 µM	0.534
KHOS-NP, 10 µM	0.21
MES-SA, 0.00017 µM	0.864
MES-SA, 0.00051 µM	0.843
MES-SA, 0.00152 µM	0.866
MES-SA, 0.00457 µM	0.893
MES-SA, 0.01372 µM	0.859
MES-SA, 0.04115 µM	0.894
MES-SA, 0.1235 µM	0.956
MES-SA, 0.3704 µM	1.01
MES-SA, 1.111 µM	0.948
MES-SA, 3.333 µM	0.385
MES-SA, 10 µM	0.135
RD, 0.00017 µM	1.06
RD, 0.00051 µM	1.06
RD, 0.00152 µM	1.07
RD, 0.00457 µM	1.05
RD, 0.01372 µM	1.05
RD, 0.04115 µM	0.978
RD, 0.1235 µM	0.769
RD, 0.3704 µM	0.459
RD, 1.111 µM	0.342
RD, 3.333 µM	0.168
RD, 10 µM	0.0473
RD-ES, 0.00017 µM	0.965
RD-ES, 0.00051 µM	0.968
RD-ES, 0.00152 µM	0.955
RD-ES, 0.00457 µM	0.918
RD-ES, 0.01372 µM	0.873
RD-ES, 0.04115 µM	0.839
RD-ES, 0.1235 µM	0.701
RD-ES, 0.3704 µM	0.457
RD-ES, 1.111 µM	0.317
RD-ES, 3.333 µM	0.165
RD-ES, 10 µM	0.0867
SK-ES-1, 0.00017 µM	0.96
SK-ES-1, 0.00051 µM	0.986
SK-ES-1, 0.00152 µM	0.971
SK-ES-1, 0.00457 µM	0.973
SK-ES-1, 0.01372 µM	1
SK-ES-1, 0.04115 µM	0.951
SK-ES-1, 0.1235 µM	0.825
SK-ES-1, 0.3704 µM	0.496
SK-ES-1, 1.111 µM	0.251
SK-ES-1, 3.333 µM	0.0717
SK-ES-1, 10 µM	0.0369
SK-LMS-1, 0.00017 µM	1.04
SK-LMS-1, 0.00051 µM	1
SK-LMS-1, 0.00152 µM	1.02
SK-LMS-1, 0.00457 µM	0.986
SK-LMS-1, 0.01372 µM	0.998
SK-LMS-1, 0.04115 µM	1.02
SK-LMS-1, 0.1235 µM	1.02
SK-LMS-1, 0.3704 µM	0.924
SK-LMS-1, 1.111 µM	0.757
SK-LMS-1, 3.333 µM	0.556
SK-LMS-1, 10 µM	0.331
SW684, 0.00017 µM	1.04
SW684, 0.00051 µM	1.05
SW684, 0.00152 µM	1.05
SW684, 0.00457 µM	0.992
SW684, 0.01372 µM	1.06
SW684, 0.04115 µM	1.06
SW684, 0.1235 µM	1.04
SW684, 0.3704 µM	1.02
SW684, 1.111 µM	0.921
SW684, 3.333 µM	0.573
SW684, 10 µM	0.2498
SW872, 0.00017 µM	0.989
SW872, 0.00051 µM	0.969
SW872, 0.00152 µM	0.967
SW872, 0.00457 µM	0.94
SW872, 0.01372 µM	0.926
SW872, 0.04115 µM	0.885
SW872, 0.1235 µM	0.818
SW872, 0.3704 µM	0.626
SW872, 1.111 µM	0.469
SW872, 3.333 µM	0.321
SW872, 10 µM	0.288
SW1353, 0.00017 µM	0.909
SW1353, 0.00051 µM	0.922
SW1353, 0.00152 µM	0.907
SW1353, 0.00457 µM	0.903
SW1353, 0.01372 µM	0.896
SW1353, 0.04115 µM	0.851
SW1353, 0.1235 µM	0.824
SW1353, 0.3704 µM	0.647
SW1353, 1.111 µM	0.449
SW1353, 3.333 µM	0.147
SW1353, 10 µM	0.0131
VA-ES-BJ, 0.00017 µM	0.946
VA-ES-BJ, 0.00051 µM	0.945
VA-ES-BJ, 0.00152 µM	0.943
VA-ES-BJ, 0.00457 µM	0.941
VA-ES-BJ, 0.01372 µM	0.983
VA-ES-BJ, 0.04115 µM	0.91
VA-ES-BJ, 0.1235 µM	0.865
VA-ES-BJ, 0.3704 µM	0.662
VA-ES-BJ, 1.111 µM	0.272
VA-ES-BJ, 3.333 µM	0.144
VA-ES-BJ, 10 µM	0.125

Cc1cc2c(F)c(Oc3ncnn4cc(OC[C@@H](C)OC(=O)[C@H](C)N)c(C)c34)ccc2[nH]1 [Brivanib_alaninate]
Details	relative viability
G401, 0.00017 µM	0.968
G401, 0.00051 µM	0.967
G401, 0.00152 µM	1
G401, 0.00457 µM	1.01
G401, 0.01372 µM	0.974
G401, 0.04115 µM	0.995
G401, 0.1235 µM	0.982
G401, 0.3704 µM	0.976
G401, 1.111 µM	1
G401, 3.333 µM	0.953
G401, 10 µM	0.8674
HT1080, 0.00017 µM	1.05
HT1080, 0.00051 µM	1.04
HT1080, 0.00152 µM	1.06
HT1080, 0.00457 µM	1.03
HT1080, 0.01372 µM	1.04
HT1080, 0.04115 µM	1.03
HT1080, 0.1235 µM	1.04
HT1080, 0.3704 µM	1.054
HT1080, 1.111 µM	1.047
HT1080, 3.333 µM	0.99
HT1080, 10 µM	0.978
KHOS-NP, 0.00017 µM	1.04
KHOS-NP, 0.00051 µM	1.05
KHOS-NP, 0.00152 µM	1.05
KHOS-NP, 0.00457 µM	1.06
KHOS-NP, 0.01372 µM	1.059
KHOS-NP, 0.04115 µM	1.07
KHOS-NP, 0.1235 µM	1.03
KHOS-NP, 0.3704 µM	1.03
KHOS-NP, 1.111 µM	1.02
KHOS-NP, 3.333 µM	0.917
KHOS-NP, 10 µM	0.6654
MES-SA, 0.00017 µM	0.919
MES-SA, 0.00051 µM	0.939
MES-SA, 0.00152 µM	0.939
MES-SA, 0.00457 µM	0.929
MES-SA, 0.01372 µM	0.927
MES-SA, 0.04115 µM	0.911
MES-SA, 0.1235 µM	0.92
MES-SA, 0.3704 µM	0.942
MES-SA, 1.111 µM	0.956
MES-SA, 3.333 µM	0.829
MES-SA, 10 µM	0.5146
RD, 0.00017 µM	1.07
RD, 0.00051 µM	1.07
RD, 0.00152 µM	1.1
RD, 0.00457 µM	1.09
RD, 0.01372 µM	1.1
RD, 0.04115 µM	1.08
RD, 0.1235 µM	1.09
RD, 0.3704 µM	1.1
RD, 1.111 µM	1.12
RD, 3.333 µM	1.04
RD, 10 µM	0.874
RD-ES, 0.00017 µM	0.953
RD-ES, 0.00051 µM	0.9804
RD-ES, 0.00152 µM	0.983
RD-ES, 0.00457 µM	0.983
RD-ES, 0.01372 µM	0.996
RD-ES, 0.04115 µM	0.989
RD-ES, 0.1235 µM	0.962
RD-ES, 0.3704 µM	1
RD-ES, 1.111 µM	0.987
RD-ES, 3.333 µM	0.9601
RD-ES, 10 µM	0.926
SK-ES-1, 0.00017 µM	1.07
SK-ES-1, 0.00051 µM	1.07
SK-ES-1, 0.00152 µM	1.06
SK-ES-1, 0.00457 µM	1.05
SK-ES-1, 0.01372 µM	1.05
SK-ES-1, 0.04115 µM	1.03
SK-ES-1, 0.1235 µM	1.06
SK-ES-1, 0.3704 µM	1.05
SK-ES-1, 1.111 µM	1.044
SK-ES-1, 3.333 µM	0.991
SK-ES-1, 10 µM	0.921
SK-LMS-1, 0.00017 µM	0.967
SK-LMS-1, 0.00051 µM	0.995
SK-LMS-1, 0.00152 µM	0.978
SK-LMS-1, 0.00457 µM	1.01
SK-LMS-1, 0.01372 µM	1.01
SK-LMS-1, 0.04115 µM	0.987
SK-LMS-1, 0.1235 µM	0.989
SK-LMS-1, 0.3704 µM	0.998
SK-LMS-1, 1.111 µM	1
SK-LMS-1, 3.333 µM	0.606
SK-LMS-1, 10 µM	0.512
SW684, 0.00017 µM	1.15
SW684, 0.00051 µM	1.15
SW684, 0.00152 µM	1.17
SW684, 0.00457 µM	1.14
SW684, 0.01372 µM	1.08
SW684, 0.04115 µM	1.07
SW684, 0.1235 µM	1.09
SW684, 0.3704 µM	1.17
SW684, 1.111 µM	1.141
SW684, 3.333 µM	1.13
SW684, 10 µM	1.19
SW872, 0.00017 µM	0.98
SW872, 0.00051 µM	0.967
SW872, 0.00152 µM	0.991
SW872, 0.00457 µM	0.988
SW872, 0.01372 µM	0.968
SW872, 0.04115 µM	0.973
SW872, 0.1235 µM	0.986
SW872, 0.3704 µM	1.02
SW872, 1.111 µM	1.04
SW872, 3.333 µM	1.05
SW872, 10 µM	1.03
SW1353, 0.00017 µM	0.949
SW1353, 0.00051 µM	0.952
SW1353, 0.00152 µM	0.999
SW1353, 0.00457 µM	0.928
SW1353, 0.01372 µM	0.97
SW1353, 0.04115 µM	0.963
SW1353, 0.1235 µM	0.94
SW1353, 0.3704 µM	0.958
SW1353, 1.111 µM	0.97
SW1353, 3.333 µM	0.984
SW1353, 10 µM	0.977
VA-ES-BJ, 0.00017 µM	1.02
VA-ES-BJ, 0.00051 µM	1.02
VA-ES-BJ, 0.00152 µM	1.03
VA-ES-BJ, 0.00457 µM	1.03
VA-ES-BJ, 0.01372 µM	1.04
VA-ES-BJ, 0.04115 µM	0.984
VA-ES-BJ, 0.1235 µM	1.02
VA-ES-BJ, 0.3704 µM	1.04
VA-ES-BJ, 1.111 µM	1.07
VA-ES-BJ, 3.333 µM	1.03
VA-ES-BJ, 10 µM	0.983
